Activity calls are given as the source filed them. No cut-off for these calls is given here.
How the values were obtained:
MOLM-13 = experiment: Antiproliferative activity in human MOLM13 cells assessed as inhibition of cell proliferation by Cell-titer-Glo method; type: functional
MV4-11 = experiment: Antiproliferative activity in human MV4-11 cells assessed as inhibition of cell proliferation by Cell-titer-Glo method; type: functional
OE19 = experiment: Antiproliferative activity in human OE19 cells assessed as inhibition of cell proliferation by Cell-titer-Glo method; type: functional
[1] = Antiproliferative activity in human OE21 cells assessed as inhibition of cell proliferation by Cell-titer-Glo method; type: functional
KYSE-520 cell line = experiment: Antiproliferative activity in human KYSE520 cells assessed as inhibition of cell proliferation by Cell-titer-Glo method; type: functional
HUVEC [2] = experiment: Antiangiogenic activity in HUVEC assessed as inhibition of cell migration at 2.5 uM incubated for 6 to 24 hrs by wound healing assay; type: functional, cell-based; conditions: Homo sapiens
HUVEC [3] = experiment: Antiangiogenic activity in HUVEC assessed as inhibition of cell migration incubated for 6 to 24 hrs by wound healing assay; type: functional, cell-based; conditions: Homo sapiens

Row | SMILES | GI50 (MOLM-13) [µM] | GI50 (MV4-11) [µM] | GI50 (OE19) [µM] | GI50 [1] [µM] | GI50 (KYSE-520 cell line) [µM] | Activity (HUVEC [2]) | Activity (HUVEC [3])
1 | C[C@@H]1C(=O)O[C@]23C=CC(=O)[C@H]1[C@]2(C)[C@@H](C)CC[C@H]3O | 6.4 to 8.6 | 6.4 to 8.6 | 6.4 to 8.6 | 6.4 to 8.6 | 6.4 to 8.6 |  | 
2 | CC1=C([C@@]2(C)C3=CC(=O)O[C@@H]3CC[C@@H]2C)C(=O)NC1=O |  |  |  |  |  | Active | Dose-dependent effect
3 | C/C1=C/[C@@]2(C)C(=CCC[C@@H]2C)CC[C@H](O)[C@H]1O |  |  |  |  |  | Active | Dose-dependent effect

From ChEMBL document CHEMBL4316639, “Clavukoellians A-F, Highly Rearranged Nardosinane Sesquiterpenoids with Antiangiogenic Activity from Clavularia koellikeri” (2019)
